Reference: patent US8318898B2, “Synthetic peptides for use as inhibitors of neurotransmitter secretion and as inducers of cellular relaxation” (Universite de Lausanne, priority 2005, dated 2012)
Like-named read-outs stand apart in the source and are kept apart here.

Experiments:
Type in all cases: cell-based, rat
[1] = tested on: PC12 cells; assay: Inhibition of [3H]norepinephrine neurosecretion by PC12 cells; conditions: for inhibition of secretion, stability test: 100 μM
Experimental: Using the neurosecretion assay described above, peptides fused to the TAT-PTD (L-TAT) were tested for inhibition of neurotransmitters and compared to use of L-TAT alone (SEQ ID NO: 3). In vitro screening for synthetic peptides capable of efficiently and selectively blocking neurotransmitter release in the PC12 cell line grown under defined conditions was performed.
PC12 cells were washed with DMEM-WM (Dulbecco's Modified Eagle Medium (GIBCO cat. no. 31968) completed with 25 units of penicillin and streptomycin each) and loaded for 1-2 h with [^3H] norepinephrine (NE; 0.5 μCi/ml) in DMEM-CM (DMEM-WM complemented with 6% horse serum and 6% fetal calf serum). Cells were washed for 1 h with DMEM-WM, and then washed 2 times at 5-minute intervals. Basal release was determined by a 15-minutes incubation with CaSB-glucose 5 mM K^+ (CaSB-glucose: 140 mM NaCl, 5 mM KCl, 2 mM CaCl2, 11 mM glucose, [pH 7.4]). The peptides were added to the cells at defined concentrations after loading with NE but before induction of secretion. Cells were depolarized with 85 mM K^+ (CaSB-glucose with Na^+ reduced accordingly) for 15 minutes to determine stimulated release. Superfusate (1 ml) was removed to tubes. Adherent cells were solubilized in CaSB-glucose-0.1% Triton (1 ml/well). The quantities of released and non-released radiolabeled neurotransmitter were determined by liquid scintillation counting of cleared superfusates and cell lysates, respectively. Total uptake was calculated by addition of released and retained radioactivity, and the percentage release was as calculated (released counts/total uptake counts)×100. Results were also expressed as percent inhibition of neurosecretion.

[2] = tested on: PC12 cells
Experimental: […]. Very little toxicity was present at 24 hours, and cytotoxicity at 48 hours was only slightly greater than at 24 hours. Cytotoxicity generally dipped to approximately 90% live cells when peptides were administered at 500 μM.

[3] = tested on: PC-12 cells; assay: Actin cytoskeleton organization, phalloidin-TRITC staining
Experimental: Slides with PC-12 cells were prepared as stated previously for localization studies. Briefly, cells were exposed to FITC-labeled or unlabeled peptides, at various concentrations, for 30 minutes, fixed and then permeabilized. Subsequently, F-actin was fluorescently labeled with phalloidin-Tetramethyl Rhodamine Iso-Thiocyanate (TRITC) (Sigma Aldrich) conjugate, diluted on saponin buffer (0.25 μg/ml), and nuclear staining with DAPI dihydrochloride (Sigma Aldrich) (0.02 μg/ml), at room temperature for maximum 30 minutes. Finally, slides were mounted and sealed, and stored at 4° C. protected from light. The effect of the peptides to actin polymerization was analyzed by confocal microscopy, as described before.

[4] = tested on: PC12-ES cells; assay: Evoked neurotransmitter secretion by undifferentiated PC12-ES cells, furin inhibitor and arginine rich peptides; conditions: potassium 80 mM, 15 minutes

Structure (SMILES): N=C(N)NCCC[C@H](NC(=O)CNC(=O)[C@H](Cc1ccc(O)cc1)NC(=O)CN)C(=O)N[C@@H](CCCCN)C(=O)N[C@@H](CCCCN)C(=O)N[C@@H](CCCNC(=N)N)C(=O)N[C@@H](CCCNC(=N)N)C(=O)N[C@@H](CCC(N)=O)C(=O)N[C@@H](CCCNC(=N)N)C(=O)N[C@@H](CCCNC(=N)N)C(=O)N[C@@H](CCCNC(=N)N)C(=O)NCC(=O)O [L-Tat]
- dose dependence of inhibition of neurosecretion [1]: dose dependent inhibition
- inhibition of secretion, stability test ([1]; 0 hours): 50%
- inhibition of secretion, stability test ([1]; 1 hour): 38%
- inhibition of secretion, stability test ([1]; 24 hours): 35%
- inhibition of secretion, stability test ([1]; 48 hours): 39%
- inhibition of secretion, stability test ([1]; No Serum): 65%
- dose dependence of inhibition of neurosecretion ([1]; listed as L-Bel1): dose dependent
- inhibition of PC12 neurotransmitter secretion ([1]; peptide 10 μM): >20%
- inhibition of PC12 neurotransmitter secretion ([1]; peptide 50 μM): 50%
- inhibition of PC12 neurotransmitter secretion ([1]; peptide 100 μM): 55%
- inhibition of PC12 neurotransmitter secretion ([1]; peptide 100 μM, listed as L-Bel1): more than 60%
- inhibition of PC12 neurotransmitter secretion ([1]; peptide 250 μM): 70%
- cytotoxicity (MTT) [2]: no marked cytotoxicity
- effect on actin content and organization at higher concentration ([3]; 100 μM): almost lost
- effect on actin content and organization ([3]; 2 to 10 μM, 30 minutes, labeled or unlabeled): decreased actin content and organization
- inhibition of evoked neurotransmitter secretion by PC12-ES cells ([4]; 10 μM): 24.6%
- inhibition of evoked neurotransmitter secretion by PC12-ES cells ([4]; 100 μM): 56.4%
